One block for each compound: values may come before it. Where a SMILES comes first, the peptide text is derived from it. [ ]: non-standard residue; d: D form. The star is where a group is joined. AMC = Cc1cc(=O)oc2cc(N*)ccc12; Cha = N[CH](CC1CCCCC1)C(=O)O; MeOSuc = COC(=O)CCC(=O)*; Orn = NCCC[C@H](N)C(=O)O; Cbz = O=C(OCc1ccccc1)*; Boc = CC(C)(C)OC(=O)*; Ms = CS(=O)(=O)*
Experiments:
Design in all cases: scale not given: the % may be the effect or the level left
[1] = molecular target: Prothrombin (Homo sapiens) (UniProt P00734); assay: Compound was evaluated for its inhibitory activity against thrombin at 100 uM concentration of substrate
[2] = molecular target: Urokinase-type plasminogen activator (Homo sapiens) (UniProt P00749); assay: Compound was evaluated for its inhibitory activity against urokinase at 100 uM concentration of substrate
[3] = molecular target: Cathepsin B (Homo sapiens) (UniProt P07858); assay: Compound was evaluated for its inhibitory activity against cathepsin B at 100 uM concentration of substrate
[4] = molecular target: T1, Neutrophil elastase (Homo sapiens) (UniProt P08246); assay: Compound was evaluated for its inhibitory activity against elastase at 100 uM concentration of substrate
T1 sequence (whole entry): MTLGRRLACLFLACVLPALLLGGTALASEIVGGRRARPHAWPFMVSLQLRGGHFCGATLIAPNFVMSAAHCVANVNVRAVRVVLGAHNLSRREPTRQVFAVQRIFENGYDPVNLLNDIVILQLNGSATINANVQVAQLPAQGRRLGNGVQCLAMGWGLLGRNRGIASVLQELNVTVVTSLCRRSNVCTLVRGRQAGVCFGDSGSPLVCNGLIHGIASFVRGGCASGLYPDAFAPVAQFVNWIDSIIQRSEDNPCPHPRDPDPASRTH

[5] = molecular target: Coagulation factor X (Homo sapiens) (UniProt P00742); assay: Compound was evaluated for its inhibitory activity against Coagulation factor X at 100 uM concentration of substrate
Chain of Coagulation factor X (Homo sapiens) (P00742 41-179 limits assumed): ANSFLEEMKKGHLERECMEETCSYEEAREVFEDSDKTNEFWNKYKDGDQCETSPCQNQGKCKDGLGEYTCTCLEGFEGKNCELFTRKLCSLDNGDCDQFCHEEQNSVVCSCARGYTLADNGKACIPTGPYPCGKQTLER
Chain of Coagulation factor X (Homo sapiens) (P00742 235-488 limits assumed): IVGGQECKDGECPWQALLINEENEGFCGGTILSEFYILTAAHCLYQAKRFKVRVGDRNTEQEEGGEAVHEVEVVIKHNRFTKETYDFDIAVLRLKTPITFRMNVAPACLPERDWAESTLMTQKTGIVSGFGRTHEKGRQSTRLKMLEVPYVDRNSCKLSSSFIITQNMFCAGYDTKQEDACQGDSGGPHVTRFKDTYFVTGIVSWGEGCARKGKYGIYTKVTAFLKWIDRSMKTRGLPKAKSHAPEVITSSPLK

- Control [1]: 5.4%
Compound: CC(=O)N[C@@H](Cc1ccccc1)C(=O)N1CCC[C@H]1C(=O)NC(CCCN=C(N)N)C(=O)Nc1ccc2c(C)cc(=O)oc2c1 (stereo partly specified)

- Control [2]: 2%
Compound: CC(=O)N[C@@H](Cc1ccccc1)C(=O)N[C@@H](C)C(=O)N[C@@H](CCCN=C(N)N)C(=O)Nc1ccc2c(C)cc(=O)oc2c1 (Ac-Phe-Ala-Arg-{AMC})

- Control [3]: 46%
Compound: CC(=O)N[C@@H](Cc1ccccc1)C(=O)N[C@@H](CCCN=C(N)N)C(=O)N[C@@H](CCCN=C(N)N)C(=O)Nc1ccc2c(C)cc(=O)oc2c1 (Ac-Phe-Arg-Arg-{AMC})

- Control [3]: 37%
Compound: CC(=O)N[C@@H](Cc1ccccc1)C(=O)N[C@@H](CCCN=C(N)N)C(=O)N[C@@H](CCCCN)C(=O)Nc1ccc2c(C)cc(=O)oc2c1 (Ac-Phe-Arg-Lys-{AMC})

- Control [4]: 1%
Compound: CC(=O)N[C@@H](Cc1ccccc1)C(=O)N[C@@H](CCC(=O)O)C(=O)N[C@H](C(=O)Nc1ccc2c(C)cc(=O)oc2c1)C(C)C (Ac-Phe-Glu-Val-{AMC})

- Control [2]: 3.9%
Compound: CC(=O)NC(Cc1ccccc1)C(=O)NCC(=O)NC(CCCN=C(N)N)C(=O)Nc1ccc2c(C)cc(=O)oc2c1 (stereo not drawn) (Ac-Phe-Gly-Arg-{AMC}; configuration not given here)

- Control [3]: 43%
Compound: CC(=O)N[C@@H](Cc1ccccc1)C(=O)N[C@@H](CCCCN)C(=O)N[C@@H](CCCN=C(N)N)C(=O)Nc1ccc2c(C)cc(=O)oc2c1 (Ac-Phe-Lys-Arg-{AMC})

- Control [3]: 18%
Compound: CSCC[C@H](NC(=O)[C@H](Cc1ccccc1)NC(C)=O)C(=O)N[C@@H](CCCCN)C(=O)Nc1ccc2c(C)cc(=O)oc2c1 (Ac-Phe-Met-Lys-{AMC})

- Control [4]: 0.8%
Compound: CC(=O)N[C@@H](Cc1ccccc1)C(=O)N1CCC[C@H]1C(=O)N[C@@H](C)C(=O)Nc1ccc2c(C)cc(=O)oc2c1 (Ac-Phe-Pro-Ala-{AMC})

- Control [4]: 11%
Compound: CC(=O)N[C@@H](Cc1ccccc1)C(=O)N1CCC[C@H]1C(=O)N[C@H](C(=O)Nc1ccc2c(C)cc(=O)oc2c1)C(C)C (Ac-Phe-Pro-Val-{AMC})

- Control [2]: 4.2%
Compound: CC(=O)N[C@@H](Cc1ccccc1)C(=O)N[C@@H](CO)C(=O)N[C@@H](CCCN=C(N)N)C(=O)Nc1ccc2c(C)cc(=O)oc2c1 (Ac-Phe-Ser-Arg-{AMC})

- Control [4]: 1.6%
Compound: CC(=O)N[C@@H](Cc1ccccc1)C(=O)N[C@H](C(=O)N[C@H](C(=O)Nc1ccc2c(C)cc(=O)oc2c1)C(C)C)[C@@H](C)O (Ac-Phe-Thr-Val-{AMC})

- Control [5]: 1.1%
Compound: CC(=O)N[C@@H](Cc1ccccc1)C(=O)N[C@@H](Cc1ccc(O)cc1)C(=O)N[C@@H](CCCN=C(N)N)C(=O)Nc1ccc2c(C)cc(=O)oc2c1 (Ac-Phe-Tyr-Arg-{AMC})

- Control [3]: 23%
Compound: CC(=O)N[C@@H](Cc1ccccc1)C(=O)N[C@H](C(=O)N[C@@H](CCCCN)C(=O)Nc1ccc2c(C)cc(=O)oc2c1)C(C)C (Ac-Phe-Val-Lys-{AMC})

- Control [3]: 18%
Compound: CC(=O)N[C@@H](Cc1ccccc1)C(=O)N[C@@H](CCCN)C(=O)N[C@@H](CCCN=C(N)N)C(=O)Nc1ccc2c(C)cc(=O)oc2c1 (Ac-Phe-[Orn]-Arg-{AMC})

- Control [3]: 21%
Compound: CC(=O)N[C@@H](Cc1ccccc1)C(=O)N[C@@H](CCCN)C(=O)N[C@@H](CCCCN)C(=O)Nc1ccc2c(C)cc(=O)oc2c1 (Ac-Phe-[Orn]-Lys-{AMC})

- Control [3]: 100%
Compound: Cc1cc(=O)oc2cc(NC(=O)[C@H](CCCN=C(N)N)NC(=O)[C@H](CCCCN)NC(=O)[C@H](CC(C)C)NC(=O)OC(C)(C)C)ccc12 (Boc-Leu-Lys-Arg-{AMC})

- Control [1]: 100%
Compound: Cc1cc(=O)oc2cc(NC(=O)[C@H](CCCN=C(N)N)NC(=O)[C@@H]3CCCN3C(=O)CNC(=O)OCc3ccccc3)ccc12 (Cbz-Gly-Pro-Arg-{AMC})

- Control [2]: 100%
Compound: Cc1cc(=O)oc2cc(NC(=O)C(CCCN=C(N)N)NC(=O)CNC(=O)C(N)CCC(=O)O)ccc12 (stereo not drawn) (H-Glu-Gly-Arg-{AMC}; configuration not given here)

- Control [4]: 100%
Compound: COC(=O)CCC(=O)N[C@@H](C)C(=O)N[C@@H](C)C(=O)N1CCC[C@H]1C(=O)N[C@H](C(=O)Nc1ccc2c(C)cc(=O)oc2c1)C(C)C (MeOSuc-AAPV-{AMC})

- Control [5]: 100%
Compound: Cc1cc(=O)oc2cc(NC(=O)C(CCCN=C(N)N)NC(=O)CNC(=O)C(CC3CCCCC3)NS(C)(=O)=O)ccc12 (stereo not drawn) (Ms-[Cha]-Gly-Arg-{AMC}; configuration not given here)
